# ChEMBL document CHEMBL1153751, “Biologically active tetranorditerpenoids from the fungus Sclerotinia homoeocarpa causal agent of dollar spot in turfgrass” (J Nat Prod, 2009)
# The source made the active and inactive calls. No cut-off for these calls is given here.
# Test system: Plasmodium falciparum
# Experiment: microbe, parasite or virus in culture
# Settings: W2, 72 h
row,SMILES,IC50
1,C[C@]12CCC[C@](C)(C(=O)O)[C@@H]1C=C[C@]1(O)COC(=O)C[C@H]21 [OIDIOLACTONE E],0.19 µg/mL
2,C[C@@H]1CC[C@H]2[C@@H](C)C(=O)O[C@@H]3O[C@@]4(C)CC[C@@H]1[C@]32OO4 [ARTEMISININ],0.0038 µg/mL
3,C[C@]12C=C[C@H](O)[C@]3(C)C(=O)O[C@@H](C13)[C@H]1O[C@]13COC(=O)C=C32 (stereo not given in full),0.6 µg/mL

# Test system: SK-MEL
# Experiment: Cytotoxicity against human SK-MEL cells after 48 hrs by neutral red dye staining
# Type: functional, cell-based
# Settings: not given
row,SMILES,IC50
1,C[C@@]12C[C@@H](O)C[C@]3(C)C4=CC(=O)OCC4=C[C@@H](OC1=O)C23 (stereo not given in full),0.41 µg/mL
2,C[C@]12CCC[C@](C)(C(=O)O)[C@@H]1C=C[C@]1(O)COC(=O)C[C@H]21 [OIDIOLACTONE E],0.72 µg/mL
3,C[C@]12C=C[C@H](O)[C@]3(C)C(=O)O[C@@H](C13)[C@H]1O[C@]13COC(=O)C=C32 (stereo not given in full),0.58 µg/mL

# Test system: Lactuca sativa
# Experiment: Phytotoxicity against Lactuca sativa at 0.001 mg/ml
# Type: functional, organism-based
# Settings: not given
row,SMILES,Activity
1,C[C@]12CCC[C@](C)(C(=O)O)[C@@H]1C=C[C@]1(O)COC(=O)C[C@H]21 [OIDIOLACTONE E],inactive

# Test system: Agrostis stolonifera
# Experiment: Phytotoxicity against Agrostis stolonifera at 0.1 mg/ml
# Type: functional, organism-based
# Settings: not given
row,SMILES,Activity
1,C[C@@]12C[C@@H](O)C[C@]3(C)C4=CC(=O)OCC4=C[C@@H](OC1=O)C23 (stereo not given in full),Active
2,C[C@]12C=C[C@H](O)[C@]3(C)C(=O)O[C@@H](C13)[C@H]1O[C@]13COC(=O)C=C32 (stereo not given in full),Active

# Test system: Agrostis stolonifera
# Experiment: Phytotoxicity against Agrostis stolonifera at 0.001 mg/ml
# Type: functional, organism-based
# Settings: not given
row,SMILES,Activity
1,C[C@]12CCC[C@](C)(C(=O)O)[C@@H]1C=C[C@]1(O)COC(=O)C[C@H]21 [OIDIOLACTONE E],inactive

# Test system: SK-OV-3
# Experiment: Cytotoxicity against human SKOV3 cells after 48 hrs by neutral red dye staining
# Type: functional, cell-based
# Settings: SK-OV-3, 48 h
row,SMILES,IC50
1,C[C@@]12C[C@@H](O)C[C@]3(C)C4=CC(=O)OCC4=C[C@@H](OC1=O)C23 (stereo not given in full),3.2 µg/mL
2,C[C@]12CCC[C@](C)(C(=O)O)[C@@H]1C=C[C@]1(O)COC(=O)C[C@H]21 [OIDIOLACTONE E],6.3 µg/mL
3,C[C@]12C=C[C@H](O)[C@]3(C)C(=O)O[C@@H](C13)[C@H]1O[C@]13COC(=O)C=C32 (stereo not given in full),8 µg/mL

# Test system: Vero
# Experiment: Cytotoxicity against african green monkey Vero cells after 48 hrs by neutral red dye staining
# Type: cell-based
# Settings: Chlorocebus sabaeus
row,SMILES,IC50
1,C[C@@]12C[C@@H](O)C[C@]3(C)C4=CC(=O)OCC4=C[C@@H](OC1=O)C23 (stereo not given in full),1 µg/mL
2,C[C@]12CCC[C@](C)(C(=O)O)[C@@H]1C=C[C@]1(O)COC(=O)C[C@H]21 [OIDIOLACTONE E],1.7 µg/mL
3,C[C@]12C=C[C@H](O)[C@]3(C)C(=O)O[C@@H](C13)[C@H]1O[C@]13COC(=O)C=C32 (stereo not given in full),1.5 µg/mL

# Test system: Lactuca sativa
# Experiment: Phytotoxicity against Lactuca sativa at 1 mg/ml
# Type: functional, organism-based
# Settings: not given
row,SMILES,Activity
1,C[C@@]12C[C@@H](O)C[C@]3(C)C4=CC(=O)OCC4=C[C@@H](OC1=O)C23 (stereo not given in full),Active
2,C[C@]12CCC[C@](C)(C(=O)O)[C@@H]1C=C[C@]1(O)COC(=O)C[C@H]21 [OIDIOLACTONE E],Active
3,C[C@]12C=C[C@H](O)[C@]3(C)C(=O)O[C@@H](C13)[C@H]1O[C@]13COC(=O)C=C32 (stereo not given in full),Active

# Test system: not listed separately
# Experiment: Cytotoxicity against pig LLC-PK11 cells after 48 hrs by neutral red dye staining
# Type: functional, cell-based
# Settings: Sus scrofa, LLC-PK11, 48 h
row,SMILES,IC50
1,C[C@@]12C[C@@H](O)C[C@]3(C)C4=CC(=O)OCC4=C[C@@H](OC1=O)C23 (stereo not given in full),1.2 µg/mL
2,C[C@]12CCC[C@](C)(C(=O)O)[C@@H]1C=C[C@]1(O)COC(=O)C[C@H]21 [OIDIOLACTONE E],4.8 µg/mL
3,C[C@]12C=C[C@H](O)[C@]3(C)C(=O)O[C@@H](C13)[C@H]1O[C@]13COC(=O)C=C32 (stereo not given in full),2.8 µg/mL

# Test system: Lemna aequinoctialis
# Experiment: Phytotoxicity against Lemna paucicostata after 7 days
# Type: functional, organism-based
# Settings: 168 h, read-out: I50
row,SMILES,IC50
1,C[C@@]12C[C@@H](O)C[C@]3(C)C4=CC(=O)OCC4=C[C@@H](OC1=O)C23 (stereo not given in full),9.09 µM
2,C[C@]12C=C[C@H](O)[C@]3(C)C(=O)O[C@@H](C13)[C@H]1O[C@]13COC(=O)C=C32 (stereo not given in full),0.39 µM

# Test system: Vero
# Experiment: Cytotoxicity against african green monkey Vero cells at 4760 ng/ml after 48 hrs by neutral red dye staining
# Type: cell-based
# Settings: Chlorocebus sabaeus
row,SMILES,inhibition (INH)
1,C[C@@H]1CC[C@H]2[C@@H](C)C(=O)O[C@@H]3O[C@@]4(C)CC[C@@H]1[C@]32OO4 [ARTEMISININ],Not Active

# Test system: BT-549
# Experiment: Cytotoxicity against human BT549 cells after 48 hrs by neutral red dye staining
# Type: functional, cell-based
# Settings: BT-549, 48 h
row,SMILES,IC50
1,C[C@@]12C[C@@H](O)C[C@]3(C)C4=CC(=O)OCC4=C[C@@H](OC1=O)C23 (stereo not given in full),4.7 µg/mL
2,C[C@]12CCC[C@](C)(C(=O)O)[C@@H]1C=C[C@]1(O)COC(=O)C[C@H]21 [OIDIOLACTONE E],9 µg/mL
3,C[C@]12C=C[C@H](O)[C@]3(C)C(=O)O[C@@H](C13)[C@H]1O[C@]13COC(=O)C=C32 (stereo not given in full),4.8 µg/mL

# Test system: KB
# Experiment: Cytotoxicity against human KB cells after 48 hrs by neutral red dye staining
# Type: functional, cell-based
# Settings: not given
row,SMILES,IC50
1,C[C@@]12C[C@@H](O)C[C@]3(C)C4=CC(=O)OCC4=C[C@@H](OC1=O)C23 (stereo not given in full),2.1 µg/mL
2,C[C@]12CCC[C@](C)(C(=O)O)[C@@H]1C=C[C@]1(O)COC(=O)C[C@H]21 [OIDIOLACTONE E],4.5 µg/mL
3,C[C@]12C=C[C@H](O)[C@]3(C)C(=O)O[C@@H](C13)[C@H]1O[C@]13COC(=O)C=C32 (stereo not given in full),4.4 µg/mL

# Test system: Plasmodium falciparum
# Experiment: microbe, parasite or virus in culture
# Settings: D6, 72 h
row,SMILES,IC50
1,C[C@]12CCC[C@](C)(C(=O)O)[C@@H]1C=C[C@]1(O)COC(=O)C[C@H]21 [OIDIOLACTONE E],0.25 µg/mL
2,C[C@@H]1CC[C@H]2[C@@H](C)C(=O)O[C@@H]3O[C@@]4(C)CC[C@@H]1[C@]32OO4 [ARTEMISININ],0.0047 µg/mL
3,C[C@]12C=C[C@H](O)[C@]3(C)C(=O)O[C@@H](C13)[C@H]1O[C@]13COC(=O)C=C32 (stereo not given in full),0.75 µg/mL

# Test system: Agrostis stolonifera
# Experiment: Phytotoxicity against Agrostis stolonifera at 1 mg/ml
# Type: functional, organism-based
# Settings: not given
row,SMILES,Activity
1,C[C@@]12C[C@@H](O)C[C@]3(C)C4=CC(=O)OCC4=C[C@@H](OC1=O)C23 (stereo not given in full),Active
2,C[C@]12CCC[C@](C)(C(=O)O)[C@@H]1C=C[C@]1(O)COC(=O)C[C@H]21 [OIDIOLACTONE E],Active
3,C[C@]12C=C[C@H](O)[C@]3(C)C(=O)O[C@@H](C13)[C@H]1O[C@]13COC(=O)C=C32 (stereo not given in full),Active

# Test system: Lactuca sativa
# Experiment: Phytotoxicity against Lactuca sativa at 0.1 mg/ml
# Type: functional, organism-based
# Settings: not given
row,SMILES,Activity
1,C[C@@]12C[C@@H](O)C[C@]3(C)C4=CC(=O)OCC4=C[C@@H](OC1=O)C23 (stereo not given in full),Active
2,C[C@]12C=C[C@H](O)[C@]3(C)C(=O)O[C@@H](C13)[C@H]1O[C@]13COC(=O)C=C32 (stereo not given in full),Active

# Test system: Lactuca sativa
# Experiment: Phytotoxicity against Lactuca sativa at 0.01 mg/ml
# Type: functional, organism-based
# Settings: not given
row,SMILES,Activity
1,C[C@]12C=C[C@H](O)[C@]3(C)C(=O)O[C@@H](C13)[C@H]1O[C@]13COC(=O)C=C32 (stereo not given in full),Active
